# Data from patent publication EP2800973B1 (priority 2012, dated 2013).
# Like-named read-outs stand apart in the source and are kept apart here.
# Experiments:
# BoCell™ model cell line = format: cell-based; conditions: for increase in BoCell™ Assay sensitivity: Figure 1, 24 hr pre-treatment with drug, then BoNT/A containing drug for an additional 24 hr, YFP/CFP emission ratio
# [1] = tested on: BoCell™ modified neuroblastoma cells; format: cell-based
# neuroblastoma cells = conditions: pretreatment of cells; 1990 JBC paper; cited from earlier work
compound,measurement,setting,value
Nc1ncnc2c1nc(Br)n2[C@@H]1O[C@@H]2COP(=O)(O)O[C@H]2[C@H]1O [8-Bromoadenosine-cAMP],increase in BoCell™ Assay sensitivity,BoCell™ model cell line,increased sensitivity was not seen
same,increase in BoCell™ Assay sensitivity,BoCell™ model cell line; listed as 8-Br-cAMP,not
"CC1CNCCN1S(=O)(=O)c1cccc2cnccc12.Cl.Cl (centres unmarked) [H7, 1-(5-isoquinolinylsulfonyl)-2-methylpiperazine dichloride]",H7 concentration giving maximal effects,[1],ImM
same,neurite length and neurite number per cells,[1],rapid increases in both neurite length and neurite number per cells
same,reversibility of the phenotypic change,[1],"could be ""rescued"" by removal of the H7"
same,time and dose dependence of the H7 effect,[1],both time and dose-dependent
same,increase in BoCell™ Assay sensitivity,BoCell™ model cell line,cause an increase in BoCell™ Assay sensitivity
same,"H7 effect on assay sensitivity, dose dependence","BoCell™ model cell line; Figure 2A, 24 hr pre-treatment, then BoNT/A with H7 for 24 hr",dose dependent
same,increase in sensitivity with multiple H7 lots,"BoCell™ model cell line; Figure 5, 0.75 mM H7 from three independent manufacturers, 24 hrs pre-incubation, then BoNT/A 24 hrs",all cause an increase in sensitivity
same,sensitivity of cells to BoNT/A treatment as measured by SNAP-25 reporter cleavage,BoCell™ model cell line; pretreatment of cells with H7,significantly increased
same,cell viability,BoCells,does not affect cell viability
N=C(N)NCCNS(=O)(=O)c1cccc2cnccc12 [HA1004],morphologic changes in neuroblastoma cells,neuroblastoma cells,failed to induce morphologic changes
CC(C)Cn1c(=O)n(C)c(=O)c2[nH]cnc21 [IBMX],increase in BoCell™ Assay sensitivity,BoCell™ model cell line,not and increased sensitivity was not seen
"CCCC(=O)Nc1ncnc2c1ncn2[C@@H]1O[C@@H]2COP(=O)(O)O[C@H]2[C@H]1OC(=O)CCC [dibutyryl-cAMP, dibutyryl-cyclic AMP]",increase in BoCell™ Assay sensitivity,BoCell™ model cell line,increased sensitivity was not seen
same,increase in BoCell™ Assay sensitivity,BoCell™ model cell line; listed as db-cAMP,not
Calphostin C,increase in BoCell™ Assay sensitivity,BoCell™ model cell line,increased sensitivity was not seen
same,increase in BoCell™ Assay sensitivity,BoCell™ model cell line; listed as calphostin,not
